From US20210253575A1, “PYRROLIDINE AMINE COMPOUNDS FOR THE TREATMENT OF AUTOIMMUNE DISEASE” (Hoffmann-La Roche Inc., priority 2018, published 2021)

biological target: T1, human TLR9 (Homo sapiens, UniProt Q9NR96); experiment: HEK293-Blue-hTLR-9 cells assay (SEAP reporter, ODN2006 stimulation); assay type: cell-based; conditions: HEK293-Blue-hTLR9 cells, ODN2006 ligand, 20 hrs incubation
T1 sequence (Q9NR96 26-1032): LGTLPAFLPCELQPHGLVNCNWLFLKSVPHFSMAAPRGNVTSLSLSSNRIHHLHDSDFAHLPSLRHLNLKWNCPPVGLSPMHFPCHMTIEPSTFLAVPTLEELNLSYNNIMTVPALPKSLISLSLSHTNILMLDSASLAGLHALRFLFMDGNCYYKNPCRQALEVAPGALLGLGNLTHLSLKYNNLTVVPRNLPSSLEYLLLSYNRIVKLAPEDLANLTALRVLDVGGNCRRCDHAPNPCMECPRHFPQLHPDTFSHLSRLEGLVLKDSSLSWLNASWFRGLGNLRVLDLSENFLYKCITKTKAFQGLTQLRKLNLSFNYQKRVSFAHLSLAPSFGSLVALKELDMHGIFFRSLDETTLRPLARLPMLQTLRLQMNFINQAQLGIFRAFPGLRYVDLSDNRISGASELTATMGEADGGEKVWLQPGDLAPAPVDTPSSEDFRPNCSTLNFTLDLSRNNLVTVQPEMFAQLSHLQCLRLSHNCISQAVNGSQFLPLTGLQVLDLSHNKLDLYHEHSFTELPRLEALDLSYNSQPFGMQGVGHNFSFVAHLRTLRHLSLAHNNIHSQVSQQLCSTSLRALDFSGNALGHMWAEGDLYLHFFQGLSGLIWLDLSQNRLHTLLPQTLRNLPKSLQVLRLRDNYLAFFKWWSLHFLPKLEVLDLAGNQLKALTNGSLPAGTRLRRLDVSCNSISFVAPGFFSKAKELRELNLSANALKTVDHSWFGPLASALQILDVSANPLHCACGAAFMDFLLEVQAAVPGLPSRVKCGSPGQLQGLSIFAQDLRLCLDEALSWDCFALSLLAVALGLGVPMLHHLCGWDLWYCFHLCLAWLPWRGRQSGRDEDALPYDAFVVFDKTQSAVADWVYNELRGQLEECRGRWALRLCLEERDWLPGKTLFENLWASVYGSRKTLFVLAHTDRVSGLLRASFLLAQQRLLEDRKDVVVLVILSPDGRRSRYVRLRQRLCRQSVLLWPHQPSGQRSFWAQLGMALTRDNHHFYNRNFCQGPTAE
Experimental: The following tests were carried out in order to determine the activity of the compounds of formula (I) in HEK293-Blue-hTLR-7/8/9 cells assay.
HEK293-Blue-hTLR-9 Cells Assay:
A stable HEK293-Blue-hTLR-9 cell line was purchased from InvivoGen (Cat. #: hkb-htlr9, San Diego, Calif., USA). These cells were originally designed for studying the stimulation of human TLR9 by monitoring the activation of NF-κB. A SEAP (secreted embryonic alkaline phosphatase) reporter gene was placed under the control of the IFN-β minimal promoter fused to five NF-κB and AP-1-binding sites. The SEAP was induced by activating NF-κB and AP-1 via stimulating HEK-Blue hTLR9 cells with TLR9 ligands. Therefore the reporter expression was declined by TLR9 antagonist under the stimulation of a ligand, such as ODN2006 (Cat. #: tlrl-2006-1, Invivogen, San Diego, Calif., USA), for incubation of 20 hrs. The cell culture supernatant SEAP reporter activity was determined using QUANTI-Blue™ kit (Cat. #: rep-qb1, Invivogen, San Diego, Calif., USA) at a wavelength of 640 nm, a detection medium that turns purple or blue in the presence of alkaline phosphatase.
HEK293-Blue-hTLR9 cells were incubated at a density of 250,000˜450,000 cells/mL in a volume of 170 μL in a 96-well plate in Dulbecco's Modified Eagle's medium (DMEM) containing 4.5 g/L glucose, 50 U/mL penicillin, […], […], 2 mM L-glutamine, 10% (v/v) heat-inactivated fetal bovine serum with addition of 20 μL test compound in a serial dilution in the presence of final DMSO at 1% and 10 μL of 20 uM ODN2006 in above DMEM, perform incubation under 37° C. in a CO2incubator for 20 hrs. Then 20 μL of the superatant from each well was incubated with 180 μL Quanti-blue substrate solution at 37° C. for 2 hrs and the absorbance was read at 620˜655 nm using a spectrophotometer. The signalling pathway that TLR9 activation leads to downstream NF-κB activation has been widely accepted, and therefore similar reporter assay was modified for evaluating TLR9 antagonist.

Row | SMILES | IC50 [nM]
1 | N#Cc1ccc(N2C[C@H](CN3CCC(N)CC3)[C@@H](C(F)(F)F)C2)c2nccnc12 [Example 51, 8-[(3S,4R)-3-[(4-amino-1-piperidyl)methyl]-4-(trifluoromethyl)pyrrolidin-1-yl]quinoxaline-5-carbonitrile] | 359
2 | N#Cc1ccc(N2C[C@H](CN3CCC(N4CCNCC4)CC3)[C@@H](C(F)(F)F)C2)c2cccnc12 [Example 52, 5-[(3S,4R)-3-[(4-piperazin-1-yl-1-piperidyl)methyl]-4-(trifluoromethyl)pyrrolidin-1-yl]quinoline-8-carbonitrile] | 208
3 | N#Cc1ccc(N2C[C@H](CN3CC4(CC(N)C4)C3)[C@@H](C(F)(F)F)C2)c2cccnc12 [Example 53, 5-[(3S,4R)-3-[(6-Amino-2-azaspiro[3.3]heptan-2-yl)methyl]-4-(trifluoromethyl)pyrrolidin-1-yl]quinoline-8-carbonitrile] | 219
4 | N#Cc1ccc(N2C[C@H](CN3CCC4(CCNC4)CC3)[C@@H](C(F)(F)F)C2)c2cccnc12 [Example 54, 5-[(3S,4R)-3-(2,8-Diazaspiro[4.5]decan-8-ylmethyl)-4-(trifluoromethyl)pyrrolidin-1-yl]quinoline-8-carbonitrile] | 152
5 | N#Cc1ccc(N2C[C@H](CN3CCC4(CCCNC4)CC3)[C@@H](C(F)(F)F)C2)c2cccnc12 [Example 55, 5-[(3S,4R)-3-(2,9-Diazaspiro[5.5]undecan-9-ylmethyl)-4-(trifluoromethyl)pyrrolidin-1-yl]quinoline-8-carbonitrile] | 173
6 | N#Cc1ccc(N2C[C@H](CN3CCC4(CCNCC4)C3)[C@@H](C(F)(F)F)C2)c2cccnc12 [Example 56, 5-[(3S,4R)-3-(2,8-Diazaspiro[4.5]decan-2-ylmethyl)-4-(trifluoromethyl)pyrrolidin-1-yl]quinoline-8-carbonitrile] | 159
7 | N#Cc1ccc(N2C[C@H](CN3CCCC4(CCNCC4)C3)[C@@H](C(F)(F)F)C2)c2cccnc12 [Example 57, 5-[(3S,4R)-3-(2,9-Diazaspiro[5.5]undecan-2-ylmethyl)-4-(trifluoromethyl)pyrrolidin-1-yl]quinoline-8-carbonitrile] | 331
8 | N#Cc1ccc(N2CC(CN3CCC(N4CCOCC4)CC3)C3(CC3)C2)c2nccnc12 (stereo not drawn) [Example 58, 8-[7-[(4-Morpholino-1-piperidyl)methyl]-5-azaspiro[2.4]heptan-5-yl]quinoxaline-5-carbonitrile] | 605
9 | N#Cc1ccc(N2C[C@H](CN3CCNCC3)[C@@H](C(F)(F)F)C2)c2nccnc12 [Example 59, 8-[(3S,4R)-3-(Piperazin-1-ylmethyl)-4-(trifluoromethyl)pyrrolidin-1-yl]quinoxaline-5-carbonitrile] | 2700
10 | N#Cc1ccc(N2C[C@H](CN3CCC(N4CCCC4)CC3)[C@@H](C(F)(F)F)C2)c2nccnc12 [Example 60, 8-[(3S,4R)-3-[(4-Pyrrolidin-1-yl-1-piperidyl)methyl]-4-(trifluoromethyl)pyrrolidin-1-yl]quinoxaline-5-carbonitrile] | 509
11 | N#Cc1ccc(N2C[C@H](CN3CCC(N4CCCCC4)CC3)[C@@H](C(F)(F)F)C2)c2nccnc12 [Example 61, 8-[(3S,4R)-3-[[4-(1-Piperidyl)-1-piperidyl]methyl]-4-(trifluoromethyl)pyrrolidin-1-yl]quinoxaline-5-carbonitrile] | 438
12 | N#Cc1ccc(N2C[C@H](CN3CCC(N4CCCCCC4)CC3)[C@@H](C(F)(F)F)C2)c2nccnc12 [Example 62, 8-[(3S,4R)-3-[[4-(Azepan-1-yl)-1-piperidyl]methyl]-4-(trifluoromethyl)pyrrolidin-1-yl]quinoxaline-5-carbonitrile] | 409
13 | N#Cc1ccc(N2C[C@H](CN3C4CCC3CC(N)C4)[C@@H](C(F)(F)F)C2)c2nccnc12 (stereo partly drawn) [Example 63, 8-[(3S,4R)-3-[(3-amino-8-azabicyclo[3.2.1]octan-8-yl)methyl]-4-(trifluoromethyl)pyrrolidin-1-yl]quinoxaline-5-carbonitrile] | 294
14 | N#Cc1ccc(N2C[C@H](CN3CCC(N)C(F)(F)C3)[C@@H](C(F)(F)F)C2)c2nccnc12 (stereo partly drawn) [Example 64, 8-[(3S,4R)-3-[(4-amino-3,3-difluoro-1-piperidyl)methyl]-4-(trifluoromethyl)pyrrolidin-1-yl]quinoxaline-5-carbonitrile] | 23100
15 | N#Cc1ccc(N2CC(CN3CCC4(CCCCN4)CC3)C3(CC3)C2)c2nccnc12 (stereo not drawn) [Example 65, 8-[7-(1,9-Diazaspiro[5.5]undecan-9-ylmethyl)-5-azaspiro[2.4]heptan-5-yl]quinoxaline-5-carbonitrile] | 68
16 | N#Cc1ccc(N2CC(CN3CCC4NCC4C3)C3(CC3)C2)c2nccnc12 (stereo not drawn) [Example 66, 8-[7-(3,7-Diazabicyclo[4.2.0]octan-3-ylmethyl)-5-azaspiro[2.4]heptan-5-yl]quinoxaline-5-carbonitrile] | 123
17 | N#Cc1ccc(N2CC(CN3CCOC4(CCNCC4)C3)C3(CC3)C2)c2nccnc12 (stereo not drawn) [Example 67, 8-[7-(1-Oxa-4,9-diazaspiro[5.5]undecan-4-ylmethyl)-5-azaspiro[2.4]heptan-5-yl]quinoxaline-5-carbonitrile] | 869
18 | N#Cc1ccc(N2CC(CN3CCC(N)CC3)C3(CC3)C2)c2nccnc12 (stereo not drawn) [Example 68, 8-[7-[(4-Amino-1-piperidyl)methyl]-5-azaspiro[2.4]heptan-5-yl]quinoxaline-5-carbonitrile] | 93
19 | N#Cc1ccc(N2C[C@H](CN3CCCC(C(N)=O)C3)[C@@H](C(F)(F)F)C2)c2nccnc12 (stereo partly drawn) [Example 69, 1-[[(3S,4R)-1-(S-cyanoquinoxalin-5-yl)-4-(trifluoromethyl)pyrrolidin-3-yl]methyl]piperidine-3-carboxamide] | 15700
20 | N#Cc1ccc(N2C[C@H](CN3CCC4(CC3)CNCCO4)[C@@H](C(F)(F)F)C2)c2nccnc12 [Example 70, 8-[(3S,4R)-3-(1-oxa-4,9-diazaspiro[5.5]undecan-9-ylmethyl)-4-(trifluoromethyl)pyrrolidin-1-yl]quinoxaline-5-carbonitrile] | 253
21 | N#Cc1ccc(N2C[C@H](CNC3CCNCC3)[C@@H](C(F)(F)F)C2)c2nccnc12 [Example 71, 8-[(3S,4R)-3-[(4-piperidylamino)methyl]-4-(trifluoromethyl)pyrrolidin-1-yl]quinoxaline-5-carbonitrile] | 87
22 | C[C@H]1CN(C[C@H]2CN(c3ccc(C#N)c4nccnc34)C[C@@H]2C(F)(F)F)CC[C@H]1N [Example 72, 8-[(3S,4R)-3-[[(3S,4R)-4-amino-3-methyl-1-piperidyl]methyl]-4-(trifluoromethyl)pyrrolidin-1-yl]quinoxaline-5-carbonitrile] | 506
23 | N#Cc1ccc(N2C[C@H](CN3CC4CCC(C3)C4N)[C@@H](C(F)(F)F)C2)c2nccnc12 (stereo partly drawn) [Example 73, 8-[(3S,4R)-3-[(8-amino-3-azabicyclo[3.2.1]octan-3-yl)methyl]-4-(trifluoromethyl)pyrrolidin-1-yl]quinoxaline-5-carbonitrile] | 1190
24 | N#Cc1ccc(N2C[C@H](CN3CCC(CN)CC3)[C@@H](C(F)(F)F)C2)c2nccnc12 [Example 74, 8-[(3S,4R)-3-[[4-(aminomethyl)-1-piperidyl]methyl]-4-(trifluoromethyl)pyrrolidin-1-yl]quinoxaline-5-carbonitrile] | 325
